Consider one compound from patent US8728777B2, “High performance metabolic bacteria” (Deinove, priority 2009, dated 2014).

Structures are written as SMILES.

The test system of test [1] is Deinococcus strain M13-1A. To be noted: ethanol added at T0, 45° C., aerobiosis, Complex medium Glucose, minimum concentration with total growth inhibition. Here is the method:
(§1) This method enables evaluation of the micro-organism sensitivity to ethanol. The test is carried out at 45° C. (Thermophilic strains). Ethanol bactericidy is determined with ethanol added at: • T0, • exponential phase, • stationary phase.
(§2) For ethanol bactericidy at T0, ethanol percentages between 0 to 10% are tested.
(§3) From a pre-culture in stationary phase in an enriched culture medium, for each ethanol content to be tested, 200 μl of Complex medium Glucose is seeded at 1% v/v.
(§4) Complex Medium Glucose contains: peptone 2 g/L, yeast extract 5 g/L and glucose 10 g/Lin osmosed water: solution sterilized by autoclaving (15 minutes at 120° C.). To this solution are added the following solutions: MOPS buffer solution (10×) pH7 [acid MOPS 400 mM, NH4Cl 200 mM, NaOH 100 mM, KOH 100 mM, CaCl2 5 μM, Na2SO4 2.76 mM, MgCl2 5.28 mM]; micronutrients (10000×) [[…] 300 mM, H3BO3 4 mM, CoCl2 0.3 mM, CuSO4 0.1 mM, MnCl2 2.5 mM, ZnSO4 0.1 mM]; FeCl3(100×) 2 mM in C6H5Na3O7 20 mM; K2HPO4 1 g/L: solutions sterilized by filtration (0.2 μm).
(§5) The test is performed in 96 wells microplates in aerobiosis. Ethanol evaporation is avoided using a sterile impermeable film.
(§6) The reading of the result is done by naked eye.

For test [2], the system named is Deinococcus strain MC2-2A. To be noted: ethanol added at T0, 45° C., aerobiosis, Complex medium Glucose, minimum concentration with total growth inhibition. Here is the method: as §1, §2, §3, §4, §5, §6
For test [3], the system named is Deinococcus strain M13-1A. To be noted: ethanol added at exponential phase, 2 hours incubation, minimum concentration with loss of one log in relation to the control. Here is the method:
as §1
(§7) Ethanol Bactericidy at Exponential and Stationary Phases Test:
(§8) From a pre-culture in stationary phase in an enriched culture medium, for each ethanol content to be tested, 5 mL of Complex medium Glucose is seeded at 1% v/v.
as §4
(§9) A follow-up of growth is carried out using the control culture (no ethanol add neither at exponential phase nor at stationary phase). OD is read at 600 nm using a spectrophotometer (UV Light XS5, SECOMAM).
(§10) Once the exponential growth phase (optical density of 0.5 at 600 nm), or once the stationary phase (plateau), is reached, the solvent is added. The content tested is 0 to 20%. Then, cultures are incubated during 2 hours.
(§11) At the end of the incubation period and for each ethanol content tested, a count is taken to assess the influence of the ethanol on the strain.
(§12) Count: At the end of incubation, and for each concentration in solvent, 200 μL of culture are transferred onto another microplate and are diluted in cascade (dilutions at 1/10 over 9 wells). The dilution culture medium is an enriched medium.

Test [4] relates to Deinococcus strain MC2-2A. The note with it: 2 hours incubation, minimum concentration with loss of one log in relation to the control. Here is the method: as §1, §7, §8, §4, §9, §10, §11, §12

Take `CCO` [Ethanol, ethanol]: the “Ethanol Bactericidy T0” value in test [1] is given as 2.5%; in test [2] it was 5%. For the same compound, the “Ethanol Bactericidy Exponential phase” value amounted to 5% in test [3] and 15% in test [4] (ethanol added at exponential phase). The “Ethanol Bactericidy Stationary phase” value in test [4] (ethanol added at stationary phase) is 15%.
